# Source: US20240350503A1, “COMPOUNDS FOR TREATMENT OF VIRAL INFECTIONS BY NEUROTROPIC VIRUS” (priority 2021, published 2024)
# Entries after “also recorded” stand apart in the source; their conditions may differ. Read-outs that look alike come from different tables or passages of the source.
# What was measured:
# VSV = type: cell-based, Indiana strain VSV; settings: SH-SY5Y cells, 0.5 μM, 2 h pre-treatment, MOI 0.001, 18 h; versus DMSO control
# HSV-1 [1] = assay: virus plaque assay of supernatant from HSV-1 infected mouse primary neurons; type: cell-based, HSV-1 KOS strain; settings: 0.5 μM, 2 h pre-treatment, MOI 3, 72 h, versus DMSO control
# Description: (§1) The isolated mouse primary-neurons were pre-treated with ML228 and DMSO at a concentration of 0.5 μM for 2 hours and were infected with HSV-1, at a MOI of 3 and HSV-2, at a MOI of 2. After 4 hours infection, the virus was removed and the cells were incubated with ML228 and DMSO for 72 hours. After 72 hours, the supernatant was used for virus plaque assay and the cells were lysed for RNA-extraction and RT-qPCRt.
# (§2) Supernatants collected from mouse primary neurons treated with ML228 and DMSO and infected with HSV-1 and HSV-2, were used for virus titer in a virus plaque assay. For this purpose, Vero cells at a density of 1.2×10^6 cells/petri dish, in DMEM were seeded and left overnight in order to settle and to form a monolayer. The next day, cells were infected with 100 μL of supernatant in appropriate serial dilutions. The cells were incubated for 1 hour at 37° C. Subsequently, 5 ml DMEM supplemented with 0.2% normal human immunoglobin (Octapharma) were added to the cells. The plates were incubated for 2-3 days at 37° C. and stained with 0.03% methyl blue. The plaques were counted and the results were represented as PFU (plaque-forming units) per sample.
# HSV-2 [2] = assay: virus plaque assay of supernatant from HSV-2 infected mouse primary neurons; type: cell-based, HSV-2 333 strain; settings: 0.5 μM, 2 h pre-treatment, MOI 2, 72 h, versus DMSO control
# Description: as §1, §2
# HSV-2 [3] = assay: RT-qPCR of HSV-2 glycoprotein B RNA in infected mouse primary neurons; type: cell-based, HSV-2 333 strain; settings: 0.5 μM, 2 h pre-treatment, MOI 2, 72 h, versus DMSO control
# Description: as §1
# (§3) The RT-qPCR results were obtained by total RNA extraction using the High Pure RNA Isolation kit (Roche) according to the manufacturer's instructions. RNA quality and concentration was assessed using Nanodrop spectrometry (Thermo Fisher). Viral replication was analysed by measuring RNA level against HSV-(1/2) Glycoprotein B (gB) using Brilliant III Ultra-Fast SYBR Green QRT-PCR Master Mix kit (Agilent Technology). CT values were normalized versus 18srRNA (ACT) in HSV-(1/2) infection.
# HSV-1 [4] = type: cell-based, HSV-1 KOS strain
# HSV-1 [5] = assay: RT-qPCR of HSV-1 glycoprotein B RNA in infected mouse primary neurons; type: cell-based, HSV-1 KOS strain; settings: 0.5 μM, 2 h pre-treatment, MOI 3, 72 h, versus DMSO control
# Description: as §1, §3
# Influenza A virus = assay: RT-qPCR of Influenza A virus matrix 2 (M2) RNA in infected SH-SY5Y cells; type: cell-based, Influenza virus A (H1N1) strain PR8; settings: 1 μM, 2 h pre-treatment, MOI 0.1, 48 h, versus DMSO control
# EMCV = type: cell-based, FA strain EMCV
# HSV-2 [6] = type: cell-based, HSV-2 333 strain
# IRF1 gene expression = assay: RNA-sequencing of IRF1 gene expression in SH-Sy5y cells upon ML228 treatment; type: cell-based, human; settings: SH-Sy5y cells treated with AAVS1 sgRNA, ML228 0.5 μM for 8 h versus DMSO control
# HSV-1 [7] = type: cell-based, HSV-1 KOS strain; remark: listed apart in the source
# HSV-2 [8] = type: cell-based, HSV-2 333 strain; remark: listed apart in the source
compound,measurement,setting,value
c1ccc(-c2ccc(CNc3nc(-c4ccccn4)nnc3-c3ccccc3)cc2)cc1 [ML228],VSV titer / virus cytopathic effect (TCID50%),VSV,significantly reduces the virus cytopathic effect; also recorded: significantly decreased
same,"number of plaque forming units (PFU) in titer, HSV-1",HSV-1 [1],significantly reduced; also recorded: significantly decreased
same,"number of plaque forming units (PFU) in titer, HSV-2",HSV-2 [2],significantly less plaque-forming units; also recorded: significantly decreased
same,HSV-2 replication (virus gB RNA level),HSV-2 [3],severely inhibited; also recorded: significantly decreased
same,HSV-1 replication (virus gB RNA level),HSV-1 [4],significantly decreased
same,HSV-1 replication (virus gB RNA level),HSV-1 [5],reduction of the viral replication; also recorded: significantly decreased
same,Influenza A virus replication (virus M2 RNA level),Influenza A virus,also reduced; also recorded: significantly decreased
same,EMCV titer / virus cytopathic effect (TCID50%),EMCV,significantly decreased
same,"number of plaque forming units (PFU) in titer, HSV-2",HSV-2 [6],completely counteract the virus infection; also recorded: significantly decreased
same,"IRF1 gene expression, log 2 fold change",IRF1 gene expression,0.6842
same,"number of plaque forming units (PFU) in titer, HSV-1",HSV-1 [7],completely counteract the virus infection; also recorded: significantly decreased
same,HSV-2 replication (virus gB RNA level),HSV-2 [8],significantly decreased
